System: C57BL/6 mice, diffuse TBI
Assay: Flow cytometry analysis of blood after TBI
Format: in vivo, mouse
Details: 10 mg/kg i.p. 30 min prior to TBI
Protocol: 30 min prior to TBI or sham injury, mice were randomly assigned to a therapeutic group and received an intraperitoneal injection of 2LS80Mel (10 mg/kg) or sterile saline (0.25 ml). Groups were as follows: TBI-2LS80Mel n = 17; TBI-vehicle n = 17; sham n = 22 (vehicle n = 11, 2LS80Mel n = 11).
For injury induction 24 h post-surgery, mice were re-anesthetized with 5% isoflurane delivered for 3 min. The cap was removed from the injury-hub assembly and the dura was visually inspected through the hub to ensure it was intact with no debris. The hub was then filled with normal saline and attached to an extension tube connected to the male end of the fluid percussion device (Custom Design and Fabrication, Virginia Commonwealth University, Richmond, VA). An injury of moderate severity for our injury model (1.4 atm) was administered by releasing the pendulum onto the fluid-filled cylinder following the return of a toe-pinch response. Sham mice underwent the same procedure except the pendulum was not released. Injured mice were monitored for presence of a forearm fencing response and righting reflex times were recorded as indicators of injury severity ([Hosseini and Lifshitz, 2009]). The righting reflex time is the total time from the initial impact until the mouse spontaneously rights itself from a supine position. The fencing response is a tonic posturing characterized by extension and flexion of opposite arms that has been validated as an overt indicator of injury severity ([Hosseini and Lifshitz, 2009]). The injury hub was removed, and the brain was inspected for uniform herniation and integrity of the dura. The incision was cleaned with saline and closed using sutures. Moderately brain-injured mice had righting reflex recovery times greater than 4 min and a positive fencing response. […] After spontaneously righting, mice were placed in a heated recovery cage and monitored until they were ambulatory (approximately 5–15 min) before being returned to their piezoelectric sleep cage (see below). […]

CC[C@H](C)[C@H](NC(=O)CNC(=O)[C@H](CC(=O)O)NC(=O)[C@H](CO)NC(=O)[C@@H](N)Cc1c[nH]cn1)C(=O)N[C@@H](Cc1ccccc1)C(=O)N[C@H](C(=O)N[C@@H](CC(=O)O)C(=O)N[C@@H](CO)C(=O)N[C@@H](Cc1ccc(O)cc1)C(=O)N[C@@H](CO)C(=O)N[C@@H](CCCNC(=N)N)C(=O)N[C@@H](Cc1ccc(O)cc1)C(=O)N[C@@H](CCCNC(=N)N)C(=O)N[C@@H](CCCCN)C(=O)N[C@@H](CCC(N)=O)C(=O)N[C@@H](CC(C)C)C(=O)N[C@@H](C)C(=O)N[C@H](C(=O)N[C@@H](CCCCN)C(=O)N[C@@H](CCCCN)C(=O)N[C@@H](Cc1ccc(O)cc1)C(=O)N[C@@H](CC(C)C)C(=O)N[C@@H](C)C(=O)N[C@@H](C)C(=O)N[C@H](C(=O)N[C@@H](CC(C)C)C(=O)N[C@@H](CO[C@@H]1O[C@H](CO[C@H]2O[C@H](CO)[C@H](O)[C@H](O)[C@H]2O)[C@@H](O)[C@H](O)[C@H]1O)C(N)=O)C(C)C)C(C)C)[C@@H](C)O [Compound 2LS80Mel]
CD11b+CD115+Ly6Chigh monocyte population in blood: increase was not seen
CD11b+Ly6Chigh monocyte population in blood: increase was not seen
Neutrophil populations in blood: no differences

Reference: article PMC8887546, “Design and Synthesis of Brain Penetrant Glycopeptide Analogues of PACAP With Neuroprotective Potential for Traumatic Brain Injury and Parkinsonism” (Frontiers in drug discovery, 2022)
